From patent US6071907A, “Tricyclic compounds useful as FPT inhibitors” (Schering Corporation, priority 1997, dated 2000)
pIC50: −log10 of the molar value. Where two headings read alike, the source gives them in different places.

Target: T1, partially purified rat brain farnesyl protein transferase (FPT) (Rattus norvegicus, UniProt Q02293+Q04631)
T1 construct: partially purified rat brain farnesyl protein transferase (FPT); from tissue; host or cells: rat brain (partially purified enzyme)
Experiment: FPT IC50 (inhibition of farnesyl protein transferase, in vitro enzyme assay); Ras-CVLS farnesylation
Assay type: biochemical
Procedure: In vitro enzyme assays: FPT IC50 (inhibition of farnesyl protein transferase, in vitro enzyme assay) are determined by the methods disclosed in […] or WO 95/10516.

[1] = in vitro enzyme assay, Ras-CVLS farnesylation, partially purified rat brain FPT, read-out: FPT IC50

Compound | pIC50 [1] | pIC50
O=C(CN1C(=O)c2ccccc2C1=O)N1CCC(C2c3ncc(Br)cc3CCc3cc(Cl)cc(Cl)c32)CC1 (single isomer, unassigned; (+)) [Example 4, (+)-4-(3-bromo-8,10-dichloro-6,11-dihydro-5H-benzo[5,6]cyclohepta[1,2-b]pyridin-11-yl)-1-[2-(1,3-dihydro-1,3-dioxo-2H-isoindol-2-yl)-1-oxoethyl]piperidine] | 7.73 | 
O=C(CN1CCSCC1)N1CCC(C2c3ccc(Cl)c(Br)c3CCc3cc(Br)cnc32)CC1 (centres unmarked) [Example 1, 4-[8-Chloro-3,7-dibromo-5,6-dihydro-11H-benzo [5, 6]cyclohepta[1,2-b]pyridin-11-yl]-1-(4-thiomorpholinylacetyl)piperidine] | 8.05 | 
CCC1Cc2cc(Cl)cc(Cl)c2C(N2CCN(C(=O)Cc3cc[n+]([O-])cc3)CC2)c2ncc(Br)cc21 (racemic) [Example 3] |  | 8.22

Continued by rising pIC50 [1], values first:

pIC50 [1] | Compound | pIC50
8.17 | CCC(=O)N1CCC(CC(=O)N2CCC([C@H]3c4ncc(Br)cc4CCc4cc(Cl)cc(Br)c43)CC2)CC1 [Example 5, (+)-4-(3,10-Dibromo-8-chloro-6,11-dihydro-5H-benzo[5,6]cyclohepta[1,2-b]pyridin-11 (R)-yl)-1-[(1-oxopropyl-4-piperidinyl)acetyl]piperidine] | 
8.17 | O=C(CN1CC[S+]([O-])CC1)N1CCC(C2c3ccc(Cl)c(Br)c3CCc3cc(Br)cnc32)CC1 (centres unmarked) [Example 2, 4-[8-Chloro-3,7-dibromo-6,11-dihydro-5H-benzo[5,6]cyclohepta[1,2-b]pyridin-11-yl]-1-(4-thiomorpholinylacetyl)piperidine S-oxide] | 
